9 molecules from US20040006120A1, “Use of histamine h3 receptor inverse agonists for the control of appetite and treatment of obesity” (priority 2003, published 2004) can be followed below.

For assay [1], the system named is food consumption by adult Sprague-Dawley rats. Put plainly: Food intake by adult Sprague-Dawley rats. Type of assay: in vivo, rat. Particulars: for Decrease in Food Intake (%): two hours following the onset of the dark cycle. Here is the method: The compounds summarized in Table 3 were examined for their ability to suppress food consumption by adult Sprague-Dawley rats. Male Sprague Dawley rats were purchased from Harlan Laboratories of Indianapolis, Ind. Rats were housed one per cage and maintained on a 12 hour light/dark schedule (lights-out at 12:30 p.m.) with ad libitum access to powdered Teklad Mouse/Rat Diet 7012 (available from Harlan Laboratories of Indianapolis, Ind.) and water. Rats were acclimated to laboratory conditions and food for 1 to 2 weeks prior to initiating food intake studies. On the day of experiments, test compounds were solubilized or suspended in vehicle/carrier and administered to rats (i.p. or p.o.) 30 to 60 minutes prior to the onset of the dark cycle. Food intake was determined at 1, 2, 4, and 24 hours following the onset of the dark cycle. Alternatively, rats were fasted (water provided) for 24 hours prior to evaluating the effects of compounds on food intake. For these studies, compounds or vehicle/carrier were administered and rats were placed in standard small animal metabolism chambers with ad libitum access to powdered Teklad Mouse/Rat Diet 7012 and water. Food intake was determined at 2 and 4 hours following the onset of feeding.
Data is cumulative food intake in grams, mean ± sem. In the table, * indicates a significant decrease in food intake compared to the vehicle-treated rats (t-test, p<0.05).
(§1) The percent reduction in food intake by rats two hours after intraperitoneal administration of each compound is shown in Table 5. […] In Table 5, * indicates a significant decrease in food intake compared to the vehicle-treated rats (t-test, p<0.05). The ex vivo binding values in Table 5 represent the drug dose required to obtain ½-maximal H3 receptor occupancy in the brain following intraperitoneal administration. The dose values shown in Table 5 represent the dosage of drug utilized during the food intake studies. In all cases, the tested dose exceeded the amount needed to obtain ½-maximal H3 receptor occupancy in the brain.

For assay [2], the target named is T1, H3 receptor occupancy in the brain (Rattus norvegicus, UniProt Q9QYN8).
T1 construct: H3 receptor occupancy in the brain following intraperitoneal administration; from tissue
The assay can be described thus: Ex vivo binding: H3 receptor occupancy in the brain after intraperitoneal administration. Particulars: following intraperitoneal administration.
Excerpt: as §1

Another assay addresses T2, Histamine H3 receptor (Rattus norvegicus, UniProt Q9QYN8).
T2 construct: The cerebral cortical tissues were harvested and frozen on dry ice; from tissue; host or cells: cerebral cortex of male Sprague-Dawley rats (membrane preparation)
Put plainly: Histamine H3 receptor binding in rat cerebral cortical membranes with [3H]-Nα-methylhistamine, with and without GTPγS. Particulars: in words.

Marks after values point to notes of the source that are not given here.

T1 sequence (Q9QYN8 whole entry): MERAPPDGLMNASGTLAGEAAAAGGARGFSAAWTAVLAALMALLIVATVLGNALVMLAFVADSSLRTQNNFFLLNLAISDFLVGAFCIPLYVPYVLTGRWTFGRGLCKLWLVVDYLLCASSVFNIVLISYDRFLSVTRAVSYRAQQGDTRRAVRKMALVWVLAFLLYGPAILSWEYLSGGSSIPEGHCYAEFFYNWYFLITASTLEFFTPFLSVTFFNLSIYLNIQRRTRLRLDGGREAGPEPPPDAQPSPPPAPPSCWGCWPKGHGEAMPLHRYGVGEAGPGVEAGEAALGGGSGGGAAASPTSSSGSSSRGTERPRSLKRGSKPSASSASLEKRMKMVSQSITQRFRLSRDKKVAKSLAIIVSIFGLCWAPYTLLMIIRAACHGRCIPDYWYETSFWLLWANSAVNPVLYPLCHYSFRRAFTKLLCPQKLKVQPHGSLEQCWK
T2 sequence (Q9QYN8 whole entry): as above
Protocol for Histamine H3 receptor: A histamine H3 receptor binding analysis to determine the affinity of various imidazole derivatives for G-protein uncoupled receptors was performed as follows. Male Sprague-Dawley rats were purchased from Harlan Laboratories of Indianapolis, Ind. and housed two per cage on a 12 hour light/dark schedule with ad libitum access to Teklad Mouse/Rat Diet 7012 (available from Harlan Laboratories of Indianapolis, Ind.) and water in accordance with the Animal Welfare Act of 1994 and amendments. Animals were acclimated to laboratory conditions for a minimum of one week prior to tissue harvesting.
Animals were anesthetized by NO2 inhalation and euthanized by rapid decapitation. The cerebral cortical tissues were harvested and frozen on dry ice. Rat corticies were mechanically homogenized using a Tissue Tearer in 25 mM Tris buffer (pH 7.5 at 4° C.) containing: EDTA (10 mM), phenylmethylsulfonyl fluoride (0.1 mM), chymostatin and leupeptin (each 0.2 mg/50 mL). The homogenate was centrifuged in a Sorvall centrifuge at 40,000×g for 30 minutes. The pellet was re-suspended in 25 ml water and lysed on ice for 30 minutes. The homogenate was then re-centrifuged and the membrane lysis was repeated. […] Protein concentrations were determined using the Coomassie Plus Protein Assay (available from Pierce of Rockford, Ill.). […]

As for `O=C(N[C@@H]1C[C@H]1c1c[nH]cn1)OCCC1CCCCC1` [Compound 1, 4-((1R,2R)-trans-2-(O(2-cyclohexylethyl)carboxamido)cyclopropyl)imidazole], the “Decrease in Food Intake (%)” value in assay [1] (Dose 10, intraperitoneal) is given as 32.6 ± 4.3* %. In addition, the “Ex Vivo Binding: drug dose required to obtain ½-maximal H3 receptor occupancy in the brain” value (from here on “Ex Vivo Binding: drug dose required”) in assay [2] was 31 ± 1.3 mg/kg.

Consider `O=C(CCCCC1CCCCC1)N1CCC(c2c[nH]cn2)CC1` [Compound 5, 4-(N-(5-cyclohexylpentan-1-one-1-yl)piperidin-4-yl)imidazole], for which the “Decrease in Food Intake (%)” value in assay [1] (Dose 10, intraperitoneal) is on record as 67.6 ± 9.6* %. The “Ex Vivo Binding: drug dose required” value in assay [2] was 8.0 ± 1.3 mg/kg.

As for `N[C@H](/C=C\CCc1c[nH]cn1)CC1CCCCC1` [Compound 4, 4-(((5S)(3Z)-5-amino-6-cyclohexyl)hex-3-en-1-yl)imidazole], the “Decrease in Food Intake (%)” value in assay [1] (Dose 20, intraperitoneal) is reported as 53.9 ± 11.1* %. For the same molecule, in assay [2], the “Ex Vivo Binding: drug dose required” value is “˜15 mg/kg”.

In the case of `CC(C)(C)CCC#C[C@@H]1C[C@H]1c1c[nH]cn1` [Compound 6, (1R,2R)-trans-4-(2-(5,5-dimethylhex-1-ynyl)cyclopropyl)imidazole], the “Decrease in Food Intake (%)” value in assay [1] (Dose 1, intraperitoneal) is −4.6 ± 0.8%. The “Ex Vivo Binding: drug dose required” value in assay [2] was 0.08 ± 0.03 mg/kg.

On to `O=C(N[C@@H]1C[C@H]1c1c[nH]cn1)OCC1CCCCC1` [Compound 3, 4-((1R,2R)-trans-2-(O-(2-cyclohexylmethyl)carboxamido)cyclopropyl)imidazole], for which, in assay [1] (Dose 10, intraperitoneal), the “Decrease in Food Intake (%)” value is given as 36.4 ± 3.3* %. Besides, the “duration of significant reduction of food consumption” value in assay [1] (single administration, 10 mg/kg i.p.) is “up to 24 hours”. The “Ex Vivo Binding: drug dose required” value in assay [2] is listed as 2.6 ± 1.3 mg/kg.

On to `C(=C/CCC1CCCCC1)/CCc1c[nH]cn1` [Compound 2, (3Z)-4-(6-cyclohexylhex-3-en-1-yl)imidazole], for which the “binding to GTPγS-treated cortical membrane preparation compared with non-treated preparation” value at Histamine H3 receptor is reported as “relatively little difference”. Also, the “Decrease in Food Intake (%)” value in assay [1] (Dose 3, intraperitoneal) turned out to be 5.5 ± 0.8%. Also, the “Ex Vivo Binding: drug dose required” value in assay [2] stood at 0.92 ± 0.01 mg/kg.

Regarding `O=C(N[C@@H]1C[C@H]1c1c[nH]cn1)OCc1c(Cl)cccc1Cl` [Compound 7, 4-((1R,2R)-trans-2-(O-(2,6-dichlorophenylmethyl)carboxamido)cyclopropyl)imidazole], the “Decrease in Food Intake (%)” value in assay [1] (Dose 10, intraperitoneal) stood at 0.8 ± 0.0%. Besides, the “Ex Vivo Binding: drug dose required” value in assay [2] is reported as 2.9 ± 1.3 mg/kg.

`CC(C)(C)CCOC(=O)N[C@@H]1C[C@H]1c1c[nH]cn1` [Compound 9, 4-((1R,2R)-trans-2-(O-(3,3-dimethyl-but-1-yl)carboxamido)cyclopropyl)imidazole]: the “Decrease in Food Intake (%)” value in assay [1] (Dose 10, intraperitoneal) was −25.1 ± 3.8%. In addition, the “Ex Vivo Binding: drug dose required” value in assay [2] was 3.7 ± 0.4 mg/kg.

As for `Fc1ccc(C(OCCCc2c[nH]cn2)c2ccc(F)cc2)cc1` [Compound 8, 3-(1H-imidazol-4-yl)propyl-di(p-fluorophenyl)-methylether], the “Decrease in Food Intake (%)” value in assay [1] (Dose 10, intraperitoneal) is on record as 56.6 ± 8.3* %. For the same molecule, the “Ex Vivo Binding: drug dose required” value in assay [2] stood at 5.6 ± 0.12 mg/kg.
